For experiment [1], the system named is K. pneumoniae K97/09. The experiment is described as follows: FIC checkerboard assay (combinations). The following applies: K. pneumoniae K97/09. It is filed as cell-based.
Experiment [2] has as its system A. baumannii strain (BAA-1605). The experiment is described as follows: microbe, parasite or virus in culture. It is filed as cell-based. The following applies: Acinetobacter baumannii, BAA1605, read-out: MIC.
Experiment [3] deals with K. pneumoniae K97/09. To be noted: K. pneumoniae K97/09; no unit in table (mg/L).
The test system of experiment [4] is K. pneumoniae K97/09. Kind of experiment: microbe, parasite or virus in culture. The following applies: Klebsiella pneumoniae.
Experiment [5] has as its system Acinetobacter baumannii BAA-1805 (MACI). Kind of experiment: microbe, parasite or virus in culture. To be noted: BAA1805, read-out: MACI MIC (mg/L).

The source of these data is US20210252104A1, “ANTIBACTERIAL PEPTIDE MONOMERS AND COMBINATIONS FOR CO-THERAPY” (ARREVUS, INC., priority 2018, published 2021).

Values after ≈ are worked out from the molar mass of the structure shown. Where two headings read alike, the source gives them in different places.

`C[C@@H](O)[C@H]1C(=O)N2C(C(=O)O)=C(SCCN=CN)C[C@H]12` [imipenem]: the ΣFIC in the experiment on K. pneumoniae K97/09 [1] (antibiotic + ARV-1501) is recorded as 0.5. The “MIC of antibiotic + ARV-1501” value in the experiment with K. pneumoniae K97/09 [1] (antibiotic in combination with ARV-1501, no unit in table) amounted to 4. Further, the MIC in experiment [2] was 64 µg/mL (≈ 214 µM); against K. pneumoniae K97/09 [4] (K97/09), over 256 mg/L; in the experiment on K. pneumoniae K97/09 [4] (K97/09, read-out: KPC MIC (mg/L)) it was over 256 mg/L; in experiment [5], 64 mg/L (≈ 214 µM). The “MIC of antibiotic alone” value with K. pneumoniae K97/09 [3] is given as over 256.
